Data on 1 compound can be found in patent publication US10821116B2, “Administration of iloprost as aerosol bolus” (VECTURA GMBH, priority 2011, dated 2020).

Each structure is given as a SMILES string. “Also recorded” adds a separate entry of the source. Read-outs that look alike come from different tables or passages of the source.

Data set [1] deals with patients with pulmonary arterial hypertension. In words: Clinical pilot study of iloprost bolus inhalation (Example 3). In kind it is in vivo, human. As for the experimental part:
A clinical pilot study to evaluate the safety and tolerability of nebulised iloprost administered by bolus inhalation according to the invention was conducted with 4 patients. Eligible were male and female patients with pulmonary arterial hypertension in the age from 18 to 70 years having a mean pulmonary arterial blood pressure (PAP) higher than 25 mm Hg, a pulmonary vascular resistance (PVR) higher than 240 dyn*s*cm^−5, a central venous pressure (CVP) higher than 3 mm Hg, and a pulmonary capillary wedge pressure (PCWP) lower than 12 mm Hg. Excluded were patients with a contraindication for cardiac catheterisation (such as coagulopathy, bleeding disorder, acute infection, severe cardiac dysrhythmia), pregnancy, systemic systolic blood pressure below 110 mm Hg, highly impaired ventricular function with cardiac index below 1.8 L/min*m^2, and known lack of pulmonary vascular reactivity. Patients were monitored by ECG, pulse oxymetry, and non-invasive blood pressure measurement. An intracardiac catheter was introduced into the distal pulmonary artery to measure PAP, CVP, PCWP, and cardiac output. Also measured were the heart rate, systemic arterial pressure (SAP), systemic vascular resistance (SVR), central arterial and venous blood gases. After the initial determination of all parameters the reactivity of the pulmonary vasculature to oxygen (2 to 4 L/min) and nitric oxide (20 ppm) was tested. Subsequently, patients inhaled a single dose of 2.5 μg of nebulised iloprost in two consecutive breaths, using the same inhalation system and iloprost composition as described in Example 1. Haemodynamic parameters and clinical condition of the patients were assessed before and up to 30 minutes after inhalation. In the absence of adverse effects, a second inhalation manoeuvre with 4 consecutive breaths corresponding to a dose 5 μg iloprost was performed, again followed by an observation period of at least 30 minutes.

The subject of data set [2] is patients suffering from pulmonary hypertension (PH). In words: Iloprost bolus inhalation in six further patients (Example 4). It counts as in vivo, human. Particulars: bolus inhalation as in Example 3. How it is done:
Six further patients suffering from pulmonary hypertension (PH) were treated with iloprost bolus inhalation as in Example 3.

For data set [3] the following is noted: cited from earlier work.
[4] abbreviates: bolus inhalation of 2.5 μg and 5 μg, versus slow inhalation of iloprost.

As to `CC#CCC(C)[C@H](O)/C=C/[C@@H]1[C@H]2C/C(=C/CCCC(=O)O)C[C@H]2C[C@H]1O` (stereo partly drawn) [iloprost, 5-{(E) -(1S,5S,6R,7R)-7-hydroxy-6[(E)-(3S, 4RS)-3-hydroxy-4-methyl-1-octen-6-inyl]-bi-cyclo[3.3.0]octan-3-ylidene}pentanoic acid], the “mean pulmonary arterial pressure (PAP) after bolus inhalation versus baseline, p” value in data set [1] (FIG. 1, n=4, Mann-Whitney rank-sum test) is listed as less than 0.05. Also, in data set [1] (FIG. 3, n=4, Mann-Whitney rank-sum test), the “mean systemic arterial pressure (SAP) after bolus inhalation versus baseline, significance” value is recorded as “not significant”. Moreover, in data set [1] (FIG. 4, n=4, Mann-Whitney rank-sum test), the “systemic vascular resistance (SVR) after bolus inhalation versus baseline, significance” value was “not significant”. Besides, in data set [1] (bolus inhalation of 2.5 μg (2 breaths) and 5 μg (4 breaths), 4 PAH patients), the “tolerability of the treatment” value is listed as “all patients tolerated the treatment well; also recorded: well-tolerated by patients”. Further, the “systemic side effects (SAP and SVR changes)” value in data set [1] (setting [4]) is listed as “comparable to those observed after conventional iloprost treatment”. Moreover, the “therapeutic pulmonary vascular effects (PAP and PVR changes)” value in data set [1] (setting [4]) was “comparable to those observed after conventional iloprost treatment”. Further, the adverse effects result in data set [2] (six PH patients) was “no adverse effects were observed other than the SAP and SVR changes which were mild”. The pulmonary vascular effects result in data set [2] (six PH patients (PAH, iPAH, portopulmonary, CTEPH)) is on record as “very comparable to those found in Example 3”. For the same compound, the solubility result in data set [3] (acetone) is recorded as “soluble”; in data set [3] (aqueous buffer at pH 3), “very slightly soluble”; in data set [3] (aqueous buffer at pH 5), “very slightly soluble”; in data set [3] (aqueous buffer at pH 7) it was “soluble”; in data set [3] (aqueous buffer pH 9), “sparingly soluble”; in data set [3] (distilled water), “very slightly soluble”. In addition, the solubility result in data set [3] (ethanol), in data set [3] (ethyl acetate) and in data set [3] (methanol) was “soluble” throughout. Also, the aqueous solubility entry in data set [3] (water) was “rather poor”.
